{"source": "patent US20080070986A1", "about": "“ALKYLETHER CITRATES FOR SELECTIVELY CLEANING THE SKIN” (priority 2006, published 2008)", "test_in_all_cases": "Minimum inhibiting concentration (MIC), dilution series to DIN 58940 and DIN 58944", "assay_type_in_all_cases": "cell-based", "key": {"[1]": {"test_system": "Propionibacterium acnes", "parameters": "Minimum inhibiting concentration: unit not given here", "conditions": "for Minimum inhibiting concentration: test solution 10% active substance", "description": "(§1) The scale of an antimicrobial effect of surfactants can be established in a biological test system in which the minimum inhibiting concentration (MIC) is comparatively determined under laboratory conditions. In a dilution series of the test substance, the MIC is just that concentration at which no further growth is possible. The milder a surfactant, the higher the MIC value. The minimum inhibiting concentration of various surfactants was determined for three microorganisms occurring on the skin (Table 1). The surfactants are referred to by their names under the INCI nomenclature. [table] [table]"}, "[2]": {"test_system": "Staphylococcus epidermidis", "parameters": "Minimum inhibiting concentration: unit not given here", "conditions": "for Minimum inhibiting concentration: test solution 10% active substance", "description": "as §1"}, "[3]": {"test_system": "Malassezia furfur", "parameters": "unit not given here", "conditions": "test solution 10% active substance", "description": "as §1"}, "[4]": {"conditions": "in words, versus the other surfactants of Table 1"}}, "data": [{"substance": "Cocamidopropyl betaine", "values": [{"measurement": "Minimum inhibiting concentration", "setting": "[1]; pH 6.5, single surfactants", "result": 0.05}, {"measurement": "Minimum inhibiting concentration", "setting": "[2]; pH 6.5, single surfactants", "result": 0.1}, {"measurement": "Minimum inhibiting concentration", "setting": "[3]; pH 6.5, single surfactants", "result": ">0.5"}]}, {"substance": "Sodium Laureth Sulfate", "values": [{"measurement": "Minimum inhibiting concentration", "setting": "[1]; pH 6.5, single surfactants", "result": 0.05}, {"measurement": "Minimum inhibiting concentration", "setting": "[1]; surfactant combinations", "result": 0.05}, {"measurement": "Minimum inhibiting concentration", "setting": "[2]; pH 6.5, single surfactants", "result": 0.5}, {"measurement": "Minimum inhibiting concentration", "setting": "[2]; surfactant combinations", "result": 0.5}, {"measurement": "Minimum inhibiting concentration", "setting": "[3]; pH 6.5, single surfactants", "result": ">0.5"}, {"measurement": "Minimum inhibiting concentration", "setting": "[3]; surfactant combinations", "result": "≧1"}]}, {"substance": "Laureth-7 Citrate", "values": [{"measurement": "Inhibition compared with the other surfactants", "setting": "[1]; [4]", "result": "only inhibited at considerably higher concentrations"}, {"measurement": "Minimum inhibiting concentration", "setting": "[1]; pH 6.5, single surfactants", "result": ">0.5"}, {"measurement": "Minimum inhibiting concentration", "setting": "[1]; surfactant combinations", "result": "≧1"}, {"measurement": "Inhibition compared with the other surfactants", "setting": "[2]; [4]", "result": "only inhibited at considerably higher concentrations"}, {"measurement": "Minimum inhibiting concentration", "setting": "[2]; pH 6.5, single surfactants", "result": ">0.5"}, {"measurement": "Minimum inhibiting concentration", "setting": "[2]; surfactant combinations", "result": "≧1"}, {"measurement": "Minimum inhibiting concentration", "setting": "[3]; pH 6.5, single surfactants", "result": ">0.5"}, {"measurement": "Minimum inhibiting concentration", "setting": "[3]; surfactant combinations", "result": "≧1"}]}, {"substance": "Lauryl Glucoside", "values": [{"measurement": "Minimum inhibiting concentration", "setting": "[1]; pH 6.5, single surfactants", "result": 0.05}, {"measurement": "Minimum inhibiting concentration", "setting": "[2]; pH 6.5, single surfactants", "result": 0.5}, {"measurement": "Minimum inhibiting concentration", "setting": "[3]; pH 6.5, single surfactants", "result": ">0.5"}]}]}
